Results published in US20250382556A1, “MODULATION OF THE BRANCHED-CHAIN METABOLITE CONTENT OF FRUITS AND VEGETABLES” (BOARD OF TRUSTEES OF MICHIGAN STATE UNIVERSITY, priority 2024, published 2025).

Test system: apple fruit
Assay: Headspace volatile ester emissions of ripening apple fruit treated with AHAS inhibitor
Format: in vivo, Malus x domestica Borkh.
Parameters: key to butyl acetate emissions compared to control / hexyl acetate emissions compared to control / ethyl acetate emissions compared to control / propyl acetate emissions compared to control: —: Dash indicates no significant difference between treatments
Details: for 2-methylbutyl acetate (ile) emissions compared to control / 2-methylpropyl acetate (val) emissions compared to control / butyl acetate emissions compared to control / ethyl acetate emissions compared to control / hexyl acetate emissions compared to control / pentyl acetate emissions compared to control / propyl acetate emissions compared to control / sum of anteiso- and iso-branched-chain esters emissions compared to control: 1 mM daily
Description: Whole apple fruit, freshly harvested and at an early stage of ripening (‘ripening’), were held at room temperature (22° C.) and rubbed daily with 3 mL of a freshly made 1mM solution of the inhibitor rimsulfuron (N-((4,6-dimethoxypyrimidin-2-yl)aminocarbonyl)-3-(ethylsulfonyl)-2-pyridinesulfonamide, made from DuPont MATRIX® SG, 25% w/w active ingredient; 0.1% Tween 20) or water solution containing 0.1% Tween 20 before preparation with further treatments. Flowering quince fruit were smaller than the apple fruit and had 2 mL of the control and treatment solutions applied daily at 22° C. ‘Gala’, ‘Empire’, and ‘Jonagold’ apple fruit were treated for four, nine, and seven days before further preparation, respectively. Flowering quince fruit were treated for six days before analysis. Headspace volatile emissions were monitored for three or four representative fruits during the incubation/treatment period to determine appropriate times for further treatments. During method testing, 1 mM solutions of the imidazolinone imazamox was also assessed with apple fruit (2-[4,5-dihydro-4-methyl-4-(1-methylethyl)-5-oxo-1H-imidazol-2-yl]-5-(methoxymethyl)-3-pyridinecarboxylic acid, made from RAPTOR®, 12.1% w/w active ingredient; 0.1% Tween 20).
Headspace volatiles from small tissue samples incubated in 22 mL vials were adsorbed for 30 s using a solid-phase micro extraction (SPME) fiber (65 μm PDMS-DVB; Supelco Analytical). The SPME fiber was then directly desorbed for 1 min in the injection port of a gas chromatograph (GC; HP-6890, Hewlett-Packard) coupled to a time-of-flight mass spectrometer (MS; Pegasus II, LECO). Whole fruits and banana slices were incubated for 20 min at room temperature (22° C.) in 1-L sealed Teflon jars before a 15-s, or 3-min adsorption and 1- or 2-min desorption. Adsorption times were adjusted to ensure instrument responses were in the linear range. All desorbed volatiles were cryofocused at the beginning of the column by immersing said region of the column in liquid nitrogen. After the desorption period, the run was initiated and the liquid nitrogen removed.
The conditions of the system were as follows. Injection port: 200° C., splitless, ultra-purified helium (99.999%) carrier gas, front inlet flow 1.5 mL·min^−1 constant, 10 mL·min^−1 purge flow, 11.5 mL·min^−1 total flow. Oven: initial temperature 40° C. for 0 min, ramped by 43° C.·min^−1 to 185° C. for 0 min. Column: HP-5 MS, 30 m×0.25 mm i.d., 0.25 μm film thickness (Agilent). Transfer line temperature 225° C. MS: Electron ionization (−70 eV), ion source temperature 200° C., solvent delay 50 sec, m/z range 29 to 400, detector voltage 1500 V, data collection rate 20 Hz.
Compounds were identified by comparison of the retention time and mass spectrum against authenticated reference standards and spectra (National Institute of Standards and Technology Mass Spectral Search Program Version 2.0, 2001). Volatiles were quantified by calibration with a standard of 59 authenticated, high-purity compounds (Sigma-Aldrich Co. and Fluka Chemical) including the target compounds. The standard was made by placing 0.5 μL of an equal-part mixture of the neat compounds onto a disc of filter paper before quickly placing the filter paper into a 4-L sealed flask fitted with a Mininert valve (for SPME fiber access, and allowed to vaporize for at least 6 hours. SPME adsorption and desorption times of the standard matched that of the samples quantified (e.g., 30-s adsorption, 1 min desorption when quantifying samples in 22-mL vials).
Statistical analysis was performed using SciPy (v1.6.2), RStudio (v2023.03.0+386), or Microsoft Excel (v16.89). Against a specified value: one-tailed t-test Against two treatments: paired t-test for banana, two-sample t-test for apple and flowering quince. Against more than two treatments: Tukey's test following significant ANOVA. Analyses of branched-chain amino acids were one-tailed, all other metabolites were two-tailed. […]

[1] = ripening Empire apple peel, nine days
[2] = ripening Gala apple peel, four days
[3] = ripening Jonagold apple peel, seven days

## CCS(=O)(=O)c1cccnc1S(=O)(=O)NC(=O)Nc1nc(OC)cc(OC)n1 [rimsulfuron, N-((4,6-dimethoxypyrimidin-2-yl)aminocarbonyl)-3-(ethylsulfonyl)-2-pyridinesulfonamide]
All three cultivars (Gala, Empire, Jonagold), on average
  concentration of pentyl acetate, more abundant when treated: 1.63 fold
[1]
  2-methylbutyl acetate (ile) emissions compared to control: 1.9 ± 0.6%
  2-methylpropyl acetate (val) emissions compared to control: 27.3 ± 5.4%
  butyl acetate emissions compared to control: —
  ethyl acetate emissions compared to control: 61.4 ± 7.9%
  hexyl acetate emissions compared to control: —
  pentyl acetate emissions compared to control: 161.9 ± 16.0%
  propyl acetate emissions compared to control: 53.8 ± 8.5%
  sum of anteiso- and iso-branched-chain esters emissions compared to control: 0.8 ± 0.2%
[2]
  2-methylbutyl acetate (ile) emissions compared to control: 27.0 ± 6.3%
  2-methylpropyl acetate (val) emissions compared to control: 36.4 ± 5.0%
  butyl acetate emissions compared to control: —
  ethyl acetate emissions compared to control: 57.7 ± 9.3%
  hexyl acetate emissions compared to control: —
  pentyl acetate emissions compared to control: 155.3 ± 17.5%
  propyl acetate emissions compared to control: —
  sum of anteiso- and iso-branched-chain esters emissions compared to control: 19.0 ± 4.5%
Ripening Gala, Empire and Jonagold
  effect on butyl acetate: no discernible effect
Ripening Gala, Empire and Jonagold apple fruits, on average
  reduction of the total content of anteiso-branched-chain esters in the headspaces: 91.2%
Ripening Gala, Empire and Jonagold, all three cultivars
  2-methylpropyl acetate in headspace following treatment: reduced
[3]
  2-methylbutyl acetate (ile) emissions compared to control: 16.1 ± 1.4%
  2-methylpropyl acetate (val) emissions compared to control: 67.6 ± 4.1%
  butyl acetate emissions compared to control: —
  ethyl acetate emissions compared to control: —
  hexyl acetate emissions compared to control: 162.7 ± 19.2%
  pentyl acetate emissions compared to control: 172.3 ± 20.2%
  propyl acetate emissions compared to control: —
  sum of anteiso- and iso-branched-chain esters emissions compared to control: 6.5 ± 0.5%
